From PubChem BioAssay (NCI)
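Method: 48-hour compound exposure of cells in 96-well plates, five concentrations, linear interpolation of endpoints. Here, GI50 denotes the concentration required for 50% inhibition of growth. TGI is the concentration that stops growth completely.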

How the values were obtained:
Test in all cases: NCI tumour cell line growth inhibition, 48 h
HCC-2998 colon = system: HCC-2998 colon
RPMI-8226 leukemia = system: RPMI-8226 leukemia
MCF7 breast = system: MCF7 breast
NCI-H460 lung = system: NCI-H460 lung
M19-MEL melanoma = system: M19-MEL melanoma
KM12 colon = system: KM12 colon
BT-549 breast = system: BT-549 breast
MALME-3M melanoma = system: MALME-3M melanoma
UACC-62 melanoma = system: UACC-62 melanoma

SMILES	TGI (HCC-2998 colon)	TGI (RPMI-8226 leukemia)	TGI (MCF7 breast)	TGI (NCI-H460 lung)	TGI (M19-MEL melanoma)	TGI (KM12 colon)	TGI (BT-549 breast)	TGI (MALME-3M melanoma)	TGI (UACC-62 melanoma)	GI50 (HCC-2998 colon)	GI50 (RPMI-8226 leukemia)	GI50 (NCI-H460 lung)	GI50 (M19-MEL melanoma)	GI50 (KM12 colon)	GI50 (UACC-62 melanoma)	GI50 (MCF7 breast)	GI50 (BT-549 breast)	GI50 (MALME-3M melanoma)
C#CCNC(=O)NC(CCCCNC(=O)OCc1ccccc1)C(=O)OCc1ccccc1 (stereo not given)	> 74.1 µM	70.9 µM	> 100 µM	> 100 µM	27.6 µM	> 100 µM	> 100 µM	61 µM	33.6 µM									
CC(=O)OCC(CC[CH2][Sn]([Cl])([Cl])[c]1ccccc1)OC(C)=O (stereo not given)	83.1 µM	58.9 µM		38.8 µM	62.1 µM	33.2 µM			25.6 µM	28.2 µM	22.9 µM	19.6 µM	25.1 µM	17.8 µM	12.6 µM			
Cn1nc(-c2ccccc2)c(C(=O)/C=C/c2ccc(Cl)cc2)c(N2CCOCC2)c1=O		6.74 µM		12.2 µM	20.7 µM				10.7 µM									
O=C(Cc1ccccc1)C(c1ccccc1)S(=O)(=O)c1ccccc1 (stereo not given)	> 100 µM	> 100 µM		> 100 µM	> 100 µM	> 100 µM		> 100 µM	> 100 µM									
Cc1ccc(C2=Nc3ccccc3SC(c3cccc4c3OCO4)C2)cc1 (stereo not given)	41.3 µM	54.2 µM		> 100 µM	36.3 µM	32.5 µM		56 µM	41.9 µM									
C[P+]1(c2ccccc2)CCCCC1	> 100 µM	> 100 µM		> 100 µM	> 100 µM	> 100 µM		> 100 µM	> 100 µM									
N#C/C(=C1\OC(=N)C(c2ccc(Cl)cc2Cl)C1=O)c1ccc(Cl)cc1Cl (stereo not given)		> 100 µM			> 100 µM			> 100 µM	> 100 µM									
O=C(CO)C1CC2C=CC1C2 (stereo not given)		> 100 µM		> 100 µM	> 100 µM	> 100 µM		> 100 µM	> 100 µM									
CC(N)CC(=O)O (stereo not given)	> 5000 µM	> 5000 µM		> 5000 µM	> 5000 µM	> 5000 µM		> 5000 µM	> 5000 µM									
Cc1ccc(NC(=O)/C(C#N)=C/c2ccccc2)c(C)c1	> 100 µM	> 100 µM		> 100 µM	> 100 µM	> 100 µM		> 100 µM	> 100 µM									
CC(C)OC(=O)C1Cc2c([nH]c3ccccc23)C(c2ccccc2)N1 (stereo not given)	> 100 µM	> 100 µM		> 100 µM	> 100 µM	> 100 µM		73.4 µM	> 100 µM									
C=C1C=CC2(Br)OC3CC(C)(Cl)C(Br)CC13C2(C)C (stereo not given)	42.7 µM	53.1 µM		46 µM	44.9 µM	58.9 µM		34.5 µM	34.3 µM									
N#CNC1=NC(N)C(c2nc3ccccc3[nH]2)=C(CCCC(=O)Nc2cccc([N+](=O)[O-])c2)N1 (stereo not given)	> 100 µM	> 100 µM		> 100 µM	> 100 µM	> 100 µM		> 100 µM	> 100 µM									
Nc1nc(-c2ccc(Cl)cc2)nc2c1sc(=S)n2-c1ccccc1	50.2 µM	> 100 µM	> 100 µM	10.2 µM		> 100 µM	> 100 µM	5.67 µM	22.6 µM	7.52 µM	5.54 µM	3.31 µM		5.4 µM	4.32 µM	4.29 µM	6.5 µM	2.59 µM
Nc1nc2ccccc2c2c1S(=O)(=O)c1ccc(Cl)cc1C2=O	29.8 µM	3.31 µM	> 50 µM	6.63 µM		13.3 µM	> 50 µM	4.25 µM	24.8 µM	2.03 µM	0.719 µM	1.68 µM		1.86 µM	1.68 µM	1.49 µM	1.91 µM	1.23 µM
COCCOCCOCCOCCOC(=O)OC[n+]1ccc(NC(=NCCCCCCOc2ccc(Cl)cc2)NC#N)cc1	20.5 µM	3.13 µM	17.4 µM	19.2 µM		17.3 µM	20.5 µM	29.5 µM	22.2 µM	0.564 µM	< 0.01 µM	0.124 µM		< 0.0377 µM	9.97 µM	0.873 µM	5.71 µM	12.1 µM
CCn1ccnc1C(=O)/C=C/c1ccc(CC(=O)Nc2ccc(F)cc2)cc1	> 16.7 µM	8.09 µM	> 16.7 µM	6.51 µM		8.33 µM	7.03 µM	> 16.7 µM	6.57 µM	5.1 µM	2.28 µM	2.64 µM		3.06 µM	2.83 µM	2.52 µM	2.94 µM	> 16.7 µM
NCc1ccc(-c2nc(-c3ccc(Cl)c(O)c3)c(-c3ccncc3)[nH]2)cc1	> 25 µM	> 25 µM	> 25 µM	> 25 µM		> 25 µM	> 25 µM	11.2 µM	> 25 µM	> 25 µM	> 25 µM	> 25 µM		> 25 µM	2.53 µM	> 25 µM	> 25 µM	2.72 µM
CCOC(=O)C(CCCNC(=O)OC(C)(C)C)N(Cc1ccc(OC)cc1OC)C(=O)CC(=O)CP(=O)(OCC)OCC (stereo not given)	> 100 µM	> 100 µM		> 100 µM	> 100 µM	> 100 µM		> 100 µM	> 100 µM									

SMILES	TGI (HCC-2998 colon)	TGI (RPMI-8226 leukemia)	TGI (MCF7 breast)	TGI (NCI-H460 lung)	TGI (M19-MEL melanoma)	TGI (KM12 colon)	TGI (BT-549 breast)	TGI (MALME-3M melanoma)	TGI (UACC-62 melanoma)	GI50 (HCC-2998 colon)	GI50 (RPMI-8226 leukemia)	GI50 (NCI-H460 lung)	GI50 (M19-MEL melanoma)	GI50 (KM12 colon)	GI50 (UACC-62 melanoma)	GI50 (MCF7 breast)	GI50 (BT-549 breast)	GI50 (MALME-3M melanoma)
COC(=O)c1cc([N+](=O)[O-])cc([N+](=O)[O-])c1Cl	28.3 µM	5.66 µM	4.6 µM	39 µM		23.6 µM	22.6 µM	4.1 µM	3.1 µM	14.4 µM	2.4 µM	13.1 µM		11.3 µM	1.55 µM	1.94 µM	10.7 µM	1.95 µM
[Cl][Cu][Cl]	> 10 µM	> 10 µM	> 10 µM	> 10 µM		> 10 µM	> 10 µM	> 10 µM	> 10 µM	> 10 µM	> 10 µM	> 10 µM		> 10 µM	> 10 µM	> 10 µM	> 10 µM	> 10 µM
C/C(=N\NC(=O)C(N)=O)c1c(O)cc(C)oc1=O	> 100 µM			> 100 µM	> 100 µM	> 100 µM		> 100 µM	> 100 µM									
COc1ccc(-c2[nH]c3ccccc3c2/C=C(\C#N)S(=O)(=O)c2ccccc2)cc1	5.99 µM	> 100 µM	> 51.6 µM	> 100 µM		2.59 µM	> 76 µM	> 82 µM	16.3 µM	1.11 µM	2.14 µM	0.404 µM		0.374 µM	0.597 µM	0.398 µM	1.63 µM	1.22 µM
S=C(NCc1ccc2c(c1)OCO2)N1CCN(c2ncnc3c2oc2ccccc23)CC1	> 100 µM	> 100 µM	> 100 µM	> 100 µM		> 100 µM	> 100 µM	> 100 µM	> 100 µM	> 100 µM	6.6 µM	6.85 µM		36.7 µM	14.1 µM	4.83 µM	26.9 µM	> 100 µM
C=CCN(CC=C)C(=O)[C@H](CC)[C@@H]1CC[C@@H](C)[C@@H]([C@H](C)[C@@H](O)[C@@H](C)C(=O)[C@H](CC)C2O[C@]3(C=C[C@@H](O)[C@]4(CC[C@@](C)([C@H]5CC[C@](O)(CC)[C@H](C)O5)O4)O3)[C@H](C)C[C@@H]2C)O1 (stereo not given in full)	7.26 µM	5.43 µM	5.14 µM	4.35 µM		3.65 µM	12.3 µM	3.6 µM	4.09 µM	2.41 µM	1.62 µM	1.97 µM		1.87 µM	1.66 µM	1.95 µM	3.03 µM	1.76 µM
Cc1ccc(S(=O)(=O)NC(=O)OC23COCN2COC3)cc1	> 100 µM	73 µM	> 100 µM	> 100 µM		> 100 µM	> 100 µM	> 100 µM	> 100 µM									
C[C@@H](NC(=O)c1ccc(F)cc1)c1ccc2c(c1)CCN2C(=O)C1CCOCC1	> 100 µM	> 100 µM	> 100 µM	> 100 µM		> 100 µM	> 100 µM	> 100 µM	> 100 µM	> 100 µM	> 100 µM	> 100 µM		> 100 µM	93.5 µM	> 100 µM	> 100 µM	> 100 µM
Cn1c(C(=O)c2cccc3ccccc23)nc2ccccc21	> 100 µM	> 100 µM	> 100 µM	> 100 µM		> 100 µM	> 100 µM	> 100 µM	> 100 µM	> 100 µM	> 100 µM	> 100 µM		> 100 µM	> 100 µM	3.81 µM	> 100 µM	> 100 µM
COc1ccc(OC)c(Cc2cnc3nc(N)nc(N)c3c2C)c1	16.4 µM	15.8 µM	28.6 µM	12.2 µM		20.7 µM	43.8 µM	13.7 µM	> 71.2 µM									
COc1ccc(/C=N\Nc2nc(SCC(C)C)nc(-c3ccc(OC)cc3)c2C#N)cc1	99.4 µM	> 100 µM	> 100 µM	11 µM		> 100 µM	52.5 µM	47.9 µM	> 100 µM	24.7 µM	5.48 µM	0.548 µM		10.6 µM	25.2 µM	13.8 µM	15.7 µM	10.2 µM
CC1CCC2(C)C(CC=C(C=O)C2(O)C=O)C12CO2 (stereo not given)	11.3 µM	6.83 µM		7.7 µM	5.75 µM	11.4 µM		8.74 µM	4.02 µM									
Cc1cc(O)c2c3c(ccc2c1)C(=O)c1c(O)cccc1C3=O	> 100 µM	> 100 µM	> 100 µM	> 27 µM		> 37.8 µM	> 100 µM	0.0846 µM	13.6 µM									
CCN(Cc1ccc(F)cc1)c1ccc(CO)c(C(F)(F)F)c1	28.2 µM	45.2 µM	19.2 µM	15.7 µM		29.3 µM	28.3 µM	30.3 µM	7.33 µM	14.9 µM	11.7 µM	3.43 µM		15.2 µM	1.41 µM	5.77 µM	15.1 µM	15.5 µM
c1ccc(C2CCCCC2)c(OCCCCCN2CCNCC2)c1	2.7 µM	4.75 µM	4.36 µM	3.56 µM		4 µM	37.9 µM	3.57 µM	3.62 µM	1.32 µM	1.69 µM	1.65 µM		1.85 µM	1.87 µM	1.89 µM	7.38 µM	1.85 µM
COc1ccc(C2CC(c3ccc(N(C)C)cc3)=NN2c2ccc(S(N)(=O)=O)cc2)cc1 (stereo not given)	12.4 µM	13.2 µM	21.7 µM	5.53 µM		> 100 µM	8.7 µM	28.1 µM	> 100 µM	2.99 µM	3.26 µM	2.44 µM		3.68 µM	5.85 µM	3 µM	2.99 µM	4.12 µM
O=C(c1c(O)cc(O)cc1O)C1Cc2ccccc21 (stereo not given)	> 100 µM	> 100 µM		> 100 µM	> 100 µM	> 100 µM		> 100 µM	> 100 µM									
COC1=C(OC)[C@]2(OC)c3c(O)c(OC)c4c(c3O[C@@]23O[C@@H](c2ccccc2)CC=C3C1=O)[C@@H](OC)C[C@H](c1ccccc1)O4	3.32 µM	0.335 µM	1.36 µM	2.56 µM		3.12 µM	1.56 µM	1.38 µM	3.83 µM	1.4 µM	0.083 µM	1.09 µM		1.57 µM	1.82 µM	0.265 µM	0.461 µM	0.377 µM
COc1cc2c(cc1NC(=O)C(Cl)Cl)-c1ccc(NC(=O)C(Cl)Cl)cc1C2	2.38 µM	1.21 µM	1.82 µM	0.69 µM		1.17 µM	13.3 µM	31.6 µM	2.07 µM	0.976 µM	0.374 µM	0.25 µM		0.336 µM	0.586 µM	0.391 µM	1.74 µM	14 µM
